The nature of this data set: solubility of copper hydroxide in ammonia solutions. Format: physicochemical. The source says:
If the substrate is desirably a keratin-based material, then the substrate is selected from materials such as wool or hair (such as alpaca hair), and the AMH compound is preferably copper hydroxide (Cu[OH]2), which can be dissolved in an ammonia solution, resulting in an aqua ammonia solution of Schweizer's reagent, Cu[NH3]4[H2O]2][OH]2. […] Standard aqua ammonia (25%) saturates at only about 3% copper hydroxide W/W, and the concentrated ammonia solution is hazardous to breathe. However, the ammonia in the aqua ammonia+copper hydroxide solution can be mostly substituted with harmless ingredients. For example, a wool substrate can be soaked in an aqueous solution which is composed of only 3% ammonia, 4% W/W of ammonium chloride and 10% W/W of sodium carbonate will also dissolve 3% copper hydroxide, and after drying, the ammonium chloride and sodium carbonate can be rinsed away. A wool substrate thus treated will retain as much copper hydroxide as a substrate treated in solution of 3% copper hydroxide (saturated solution) in aqua ammonia (25% ammonia). Upon being soaked in either formula of 3% copper hydroxide solution, the surface of the wool immediately absorbs the copper hydroxide. Excess solution is squeezed out of the substrate material, and the substrate is allowed to dry. […]

The results in this text go back to patent US20170196296A1, “Amphoteric Metal Compound-Treated Substrate And Methods For Reduction Of Body Odor Using Treated Substrates” (priority 2016, published 2017).

On to `[OH][Cu][OH]` [Cu(OH)2, copper(ii) hydroxide], for which, under “3% ammonia, 4% W/W ammonium chloride, 10% W/W sodium carbonate”, the “amount dissolved in aqueous ammonia/ammonium chloride/sodium carbonate solution” value is listed as 3%. Moreover, the “saturation concentration in standard aqua ammonia” value (aqua ammonia (25%)) is given as “about 3 % W/W”.
